Measurements published in US8242111B2, “Cyclic inhibitors of 11β-hydroxysteroid dehydrogenase 1” (Vitae Pharmaceuticals, Inc., priority 2008, dated 2012).

Experiments:
human 11β-HSD1 [1] = biological target: T1, human 11β-HSD1 (Homo sapiens, UniProt P28845); experiment: Biological Test Example 1: inhibition of a microsomal preparation of 11β-HSD1 (SPA); format: biochemical; conditions: for inhibition at 0.1 µM: read-out: Average % inhibition at 100 nM
T1 construct: expressed in transfected cells; host or cells: CHO cells (microsomes)

human 11β-HSD1 [2] = biological target: T1, human 11β-HSD1; experiment: Biological Test Example 4: inhibition of microsomal 11β-HSD1 in the presence of 50% human plasma; format: biochemical; conditions: examples; for IC50: 50% human plasma; for Shift: IC50 in Biological Test Example 4 divided by IC50 in Biological Test Example 1
[3] = Biological Test Example 1, read-out: IC50 Range
[4] = Biological Test Example 1 IC50 (nM), examples
[5] = read-out: Biological Test Example 1 IC50, comparator compounds

T1 sequence (P28845 whole entry): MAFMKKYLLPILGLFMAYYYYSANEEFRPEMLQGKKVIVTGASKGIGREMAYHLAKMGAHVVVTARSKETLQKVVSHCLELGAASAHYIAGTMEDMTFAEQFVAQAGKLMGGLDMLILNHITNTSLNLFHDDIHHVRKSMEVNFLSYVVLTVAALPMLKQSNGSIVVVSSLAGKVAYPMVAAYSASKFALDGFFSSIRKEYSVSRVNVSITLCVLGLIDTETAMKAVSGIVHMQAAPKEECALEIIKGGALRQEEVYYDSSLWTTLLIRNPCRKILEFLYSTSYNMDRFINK

| Compound | IC50 (human 11β-HSD1 [1]; [3]) | IC50 (human 11β-HSD1 [1]; [4]) | inhibition at 0.1 µM (human 11β-HSD1 [1]) | IC50 (human 11β-HSD1 [2]) | Shift (human 11β-HSD1 [2]) | IC50 (human 11β-HSD1 [1]; [5]) |
| --- | --- | --- | --- | --- | --- | --- |
| CC(C)(O)C[C@]1(c2ccccc2)CCN([C@H]2CCCN(c3ncccc3F)C2)C(=O)O1 [Example 1, (S)-3-((S)-1-(3-fluoropyridin-2-yl)piperidin-3-yl)-6-(2-hydroxy-2-methylpropyl)-6-phenyl-1,3-oxazinan-2-one] | < 100 nM | 12.7 nM | 85.5% | – | – | – |
| CC(C)(O)C[C@]1(c2ccccc2)CCN([C@H]2CCCN(c3ncccc3C(F)(F)F)C2)C(=O)O1 [Example 2, (S)-6-(2-hydroxy-2-methylpropyl)-6-phenyl-3-((S)-1-(3-(trifluoromethyl)pyridin-2-yl)piperidin-3-yl)-1,3-oxazinan-2-one] | < 100 nM | 22.6 nM | 77.8% | 210 nM | 9.3 | – |
| CC(C)(O)C[C@]1(c2ccccc2)CCN([C@H]2CCCN(c3cc(C(F)(F)F)ccn3)C2)C(=O)O1 [Example 3, (S)-6-(2-hydroxy-2-methylpropyl)-6-phenyl-3-((S)-1-(4-(trifluoromethyl)pyridin-2-yl)piperidin-3-yl)-1,3-oxazinan-2-one] | < 100 nM | 4.4 nM | 91.3% | 68.7 nM | 15.6 | – |
| CC(C)(O)C[C@]1(c2ccccc2)CCN([C@H]2CCCN(c3ccc(C(F)(F)F)cn3)C2)C(=O)O1 [Example 4, (S)-6-(2-hydroxy-2-methylpropyl)-6-phenyl-3-((S)-1-(5-(trifluoromethyl)Pyridin-2-yl)piperidin-3-yl)-1,3-oxazinan-2-one] | < 100 nM | 4.1 nM | 89.8% | 21.6 nM | 5.3 | – |
| CC(C)(O)C[C@]1(c2ccccc2)CCN([C@H]2CCCN(c3cccc(C(F)(F)F)n3)C2)C(=O)O1 [Example 5, (S)-6-(2-hydroxy-2-methylpropyl)-6-phenyl-3-((S)-1-(6-(trifluoromethyl)pyridin-2-yl)piperidin-3-yl)-1,3-oxazinan-2-one] | < 100 nM | 11.8 nM | 86% | – | – | – |
| CC(C)(O)C[C@]1(c2ccccc2)CCN([C@H]2CCCN(c3ncc(F)cn3)C2)C(=O)O1 [Example 7, (S)-3-((S)-1-(5-fluoropyrimidin-2-yl)piperidin-3-yl)-6-(2-hydroxy-2-methylpropyl)-6-phenyl-1,3-oxazinan-2-one] | < 100 nM | 6.1 nM | 89.5% | 14.8 nM | 2.4 | – |
| Cc1cc(N2CCC[C@H](N3CC[C@](CC(C)(C)O)(c4ccccc4)OC3=O)C2)nc(C)n1 [Example 9, (S)-3-((S)-1-(2,6-dimethylpyrimidin-4-yl)piperidin-3-yl)-6-(2-hydroxy-2-methylpropyl)-6-phenyl-1,3-oxazinan-2-one] | < 100 nM | 84.3 nM | 40.2% | – | – | – |
| COC(=O)c1cnc(N2CCC[C@H](N3CC[C@](CC(C)(C)O)(c4ccccc4)OC3=O)C2)nc1 [Example 10] | < 100 nM | 5.5 nM | 85.8% | 69.2 nM | 12.7 | – |
| COc1cnc(N2CCC[C@H](N3CC[C@](CC(C)(C)O)(c4ccccc4)OC3=O)C2)nc1 [Example 12, (S)-6-(2-hydroxy-2-methylpropyl)-3-((S)-1-(5-methoxypyrimidin-2-yl)piperidin-3-yl)-6-phenyl-1,3-oxazinan-2-one] | < 100 nM | 4.3 nM | 91.7% | 10.4 nM | 2.4 | – |
| Cc1cnc(N2CCC[C@H](N3CC[C@](CC(C)(C)O)(c4ccccc4)OC3=O)C2)s1 [Example 13, (S)-6-(2-hydroxy-2-methylpropyl)-3-((S)-1-(5-methylthiazol-2-yl)piperidin-3-yl)-6-phenyl-1,3-oxazinan-2-one] | < 100 nM | 13.5 nM | 90.4% | – | – | – |
| CC(C)(O)C[C@]1(c2ccccc2)CCN([C@H]2CCCN(c3ncc(C(=O)NC(C)(C)C)s3)C2)C(=O)O1 [Example 21, N-tert-butyl-2-((S)-3-((S)-6-(2-hydroxy-2-methylpropyl)-2-oxo-6-phenyl-1,3-oxazinan-3-yl)piperidin-1-yl)thiazole-5-carboxamide] | 190 nM | > 100 nM | 27.3% | – | – | – |
| Cc1nnc(N2CCC[C@H](N3CC[C@](CC(C)(C)O)(c4ccccc4)OC3=O)C2)cc1Cl [Example 22, (S)-3-((S)-1-(5-chloro-6-methylpyridazin-3-yl)piperidin-3-yl)-6-(2-hydroxy-2-methylpropyl)-6-phenyl-1,3-oxazinan-2-one] | 190 nM | > 100 nM | 20.9% | – | – | – |
| (S)-3-((S)-1-(3-fluoropyridin-2-yl)piperidin-3-yl)-6-(2-hydroxy-2-methylpropyl)-6-phenyl-1,3-oxazinan-2-one [Example 1] | – | – | – | – | – | 0.77 nM |
| (S)-3-((S)-1-(5-fluoropyrimidin-2-yl)piperidin-3-yl)-6-(2-hydroxy-2-methylpropyl)-6-phenyl-1,3-oxazinan-2-one [Example 7] | – | – | – | – | – | 0.99 nM |
| (S)-6-(2-hydroxy-2-methylpropyl)-6-phenyl-3-((S)-1-(3-(trifluoromethyl)pyridin-2-yl)piperidin-3-yl)-1,3-oxazinan-2-one [Example 2] | – | – | – | – | – | 1.8 nM |
| (S)-6-(2-hydroxy-2-methylpropyl)-6-phenyl-3-((S)-1-(6-(trifluoromethyl)pyridin-2-yl)piperidin-3-yl)-1,3-oxazinan-2-one [Example 5] | – | – | – | – | – | 0.51 nM |

Continued, values first:

| IC50 (human 11β-HSD1 [1]; [3]) | IC50 (human 11β-HSD1 [1]; [4]) | inhibition at 0.1 µM (human 11β-HSD1 [1]) | IC50 (human 11β-HSD1 [2]) | Shift (human 11β-HSD1 [2]) | IC50 (human 11β-HSD1 [1]; [5]) | Compound |
| --- | --- | --- | --- | --- | --- | --- |
| < 100 nM | 19.1 nM | 75.3% | – | – | – | CC(C)(O)C[C@]1(c2ccccc2)CCN([C@H]2CCCN(c3ccnc(C(F)(F)F)n3)C2)C(=O)O1 [Example 11, (S)-6-(2-hydroxy-2-methylpropyl)-6-phenyl-3-((S)-1-(2-(trifluoromethyl)pyrimidin-4-yl)piperidin-3-yl)-1,3-oxazinan-2-one] |
| < 100 nM | 3.5 nM | 93.8% | 7.8 nM | 2.2 | – | CC(C)(O)C[C@]1(c2ccccc2)CCN([C@H]2CCN(c3ncc(Cl)cn3)C2)C(=O)O1 [Example 14, (S)-3-((S)-1-(5-chloropyrimidin-2-yl)pyrrolidin-3-yl)-6-(2-hydroxy-2-methylpropyl)-6-phenyl-1,3-oxazinan-2-one] |
| < 100 nM | 4.3 nM | 92.2% | 37.6 nM | 8.7 | – | CC(C)(O)C[C@]1(c2ccccc2)CCN([C@H]2CCN(c3ccc(C(F)(F)F)cn3)C2)C(=O)O1 [Example 15, (S)-6-(2-hydroxy-2-methylpropyl)-6-phenyl-3-((S)-1-(5-(trifluoromethyl)pyridin-2-yl)pyrrolidin-3-yl)-1,3-oxazinan-2-one] |
| < 100 nM | 1.4 nM | 94.9% | 14.4 nM | 10.0 | – | O=C1O[C@@](CCCO)(c2ccc(F)cc2)CCN1[C@H]1CCCN(c2ccc(C(F)(F)F)cn2)C1 [Example 16, (R)-6-(4-fluorophenyl)-6-(3-hydroxypropyl)-3-((S)-1-(5-(trifluoromethyl)pyridin-2-yl)piperidin-3-yl)-1,3-oxazinan-2-one] |
| < 100 nM | – | 94.7% | – | – | – | N#Cc1ccc(N2CCC[C@H](N3CC[C@](CCCO)(c4ccc(F)cc4)OC3=O)C2)nc1 [Example 17, 6((S)-3-((R)-6-(4-fluorophenyl)-6-(3-hydroxypropyl)-2-oxo-1,3-oxazinan-3-yl)piperidin-1-yl)nicotinonitrile] |
| < 100 nM | 26.4 nM | 81.6% | – | – | – | NC(=O)c1ccc(N2CCC[C@H](N3CC[C@](CCCO)(c4ccc(F)cc4)OC3=O)C2)nc1 [Example 18, 6-((S)-3-((R)-6-(4-fluorophenyl)-6-(3-hydroxypropyl)-2-oxo-1,3-oxazinan-3-yl)piperidin-1-yl)nicotinamide] |
| < 100 nM | 65.6 nM | 55.2% | – | – | – | CNC(=O)c1ccc(N2CCC[C@H](N3CC[C@](CCCO)(c4ccc(F)cc4)OC3=O)C2)nc1 [Example 19, 6-((S)-3-((R)-6-(4-fluorophenyl)-6-(3-hydroxypropyl)-2-oxo-1,3-oxazinan-3-yl)piperidin-1-yl)-N-methylnicotinamide] |
| < 100 nM | 27.4 nM | 72.5% | – | – | – | CN(C)C(=O)c1ccc(N2CCC[C@H](N3CC[C@](CCCO)(c4ccc(F)cc4)OC3=O)C2)nc1 [Example 20, 6-((S)-3-((R)-6-(4-fluorophenyl)-6-(3-hydroxpropyl)-2-oxo-1,3-oxazinan-3-yl)piperidin-1-yl)-N,N-dimethylnicotinamide] |
| < 100 nM | 5.8 nM | 94.1% | 52.8 nM | 9.2 | – | CC(C)(O)C[C@]1(c2ccccc2)CCN([C@H]2CCN(c3nccc(C(F)(F)F)n3)C2)C(=O)O1 [Example 23, (S)-6-(2-hydroxy-2-methylpropyl)-6-phenyl-3-((S)-1-(4-(trifluoromethyl)pyrimidin-2-yl)pyrrolidin-3-yl)-1,3-oxazinan-2-one] |
| < 100 nM | 42.3 nM | 67.8% | – | – | – | COc1cnc(N2CC[C@H](N3CC[C@](CC(C)(C)O)(c4ccccc4)OC3=O)C2)nc1 [Example 24, (S)-6-(2-hydroxy-2-methylpropyl)-3-((S)-1-(5-methoxypyrimidin-2-yl)pyrrolidin-3-yl)-6-phenyl-1,3-oxazinan-2-one] |
